From patent publication US6864251B2, “Treatment of LTB4-mediated inflammatory disorders with optically-pure (R)-2,3-benzodiazepines” (Vela Pharmaceuticals, Inc., priority 2002, dated 2005)
pKi: −log10 of the molar value.

What was measured:
DSS-induced colitis = test: Dextran sulfate sodium induced colitis: mouse model of inflammatory bowel disease; assay type: in vivo, Swiss Webster mice; settings: for Mean DAI ± SEM: DSS 5% in tap water; for Mean DAI* ± SEM: DAI without weight loss parameter; for % of normal length: colon length
Experimental: In this model of colitis, an acute inflammation of the colon was produced by administration of dextran sulfate sodium (DSS) as a 5% solution in tap water. This colitis was characterized by histological events and an influx of neutrophils, macrophages and mediators of inflammation similar to those observed with human inflammatory bowel diseases. […] The following study was conducted in accordance with protocols of Okayasu et al., Gastroenterology, 98:694-702, 1990.
One hundred ten test animals (female, 6 week old Swiss Webster mice, 18-30 g) were divided into ten groups, selected to eliminate any statistical differences in mean group weight.
Each animal was dosed daily (IP) with either a test substance or vehicle, starting on Day 0. Beginning on Day 1, acute colon inflammation was induced by the administration ad libitum in drinking water of dextran sulfate sodium (DSS) as a 5% solution in tap water (10 mL/mouse/day for 5-6 days), with no other fluid source for animals in the DSS arm of the study. Filtered tap water was available ad libitum except for animals receiving 5% DSS as the sole source of fluid. After four days, signs of acute disease occured with the loss of weight, diarrhea and bloody stools. Histological changes included initial shortening of the crypts, then areas of separation of the crypts and the muscularis mucosae in the absence of destructive inflammatory filtrate. After five days, pathological changes became confluent with the appearance of erosions and early hyperplastic epithelium. Inflammation scores were high with neutrophils, lymphocytes, and plasma cells in the lamina propria but sparing the epithelium.
Test compounds were administered intraperitoneally (IP). Test compounds given during this period were evaluated for prophylactic activity and test compounds given after the disease state was established were evaluated for therapeutic activity.
Test animals were weighed daily from Day 0 to Day 8, or until completion of the study. The total duration of the study with DSS arm of the study was varied depending on the time progress of colitis. The condition of the test animals and consistency of stools was noted.
At the conclusion of the study, test animals were euthanized (CO2), a midline incision was made and a stool sample was obtained. The sample was placed on a slide and tested for occult blood (Quic-Cult™, Laboratory Diagnostics Co., Morganville, N.J.). Occult blood was determined by placing two drops of the reagent onto the sample and observing any color change. Occult blood presence was graded using a scoring protocol assigning a score of 0 for no color; 1 for a very light blue color (+/−) forming in >30 seconds; 2 for a blue color developing in 30 seconds or more (+); 3 for a change in color occurring in less than 30 seconds (++); and 4 for gross blood observable on the slide. The colon was gently stretched and the length from the colon-cecal junction to the end of the distal rectum was measured to the nearest 0.1 cm.
The scores for each test animal were added and then divided by three to give a DAI score for each animal.

LTB4 receptor = LTB4 receptor (Cavia porcellus, UniProt H0VYV8); test: LTB4 binding assay, displacement of [3H]LTB4, guinea pig spleen membrane
Chain of LTB4 receptor (H0VYV8 1-348): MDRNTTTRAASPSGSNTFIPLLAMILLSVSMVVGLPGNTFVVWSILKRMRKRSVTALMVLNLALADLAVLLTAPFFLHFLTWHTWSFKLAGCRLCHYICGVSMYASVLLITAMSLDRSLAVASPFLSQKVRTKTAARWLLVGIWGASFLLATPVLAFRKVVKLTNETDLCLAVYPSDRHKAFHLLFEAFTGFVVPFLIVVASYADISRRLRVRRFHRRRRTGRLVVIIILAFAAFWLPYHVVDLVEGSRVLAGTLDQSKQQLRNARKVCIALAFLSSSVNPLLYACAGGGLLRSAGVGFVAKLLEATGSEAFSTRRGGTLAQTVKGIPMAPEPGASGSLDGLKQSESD
Experimental: Reactions were carried out in a phosphate buffer (pH 7.4) containing NaCl, MgCl2, EDTA, and bacitracin. The reaction volume of 150 μL containing 1.0 mg/mL of the Guinea pig spleen membrane preparation and 1 nM [^3H]LTB4, with or without a competitor, was incubated at 0-4° C. for 2 hours. Competitors included 2,3-benzodiazepines, and LTB4 as a control. The reaction was terminated by rapid vacuum filtration onto glass fiber filters. The filter was washed with cold buffer, dried and placed in a scintillation vial. Radioactivity trapped onto the filters was determined and compared to control values in order to ascertain any interactions of the test compound with the LTB4 binding site.

Structure (SMILES): CC[C@@H]1C(C)=NN=C(c2ccc(OC)c(OC)c2)c2cc(OC)c(OC)cc21 [(S)-tofisopam, (S)-1-(3,4-dimethoxyphenyl)-4-methyl-5-ethyl-7,8-dimethoxy-5H-2,3-benzodiazepine]
- Mean colon length CM ± SEM (DSS-induced colitis; 16 mg/kg IP daily, DSS 5%): 8.4 ± 0.19 CM
- Mean DAI ± SEM (DSS-induced colitis; 16 mg/kg IP daily): 2.37 ± 0.24
- Mean weight ± SEM, Day 0 (DSS-induced colitis; 16 mg/kg IP daily, DSS 5%): 26.0 ± 0.4 g
- % weight change ± SEM, Day 8 (DSS-induced colitis; 16 mg/kg IP daily, DSS 5%): 0.0 ± 1.5%
- Mean weight ± SEM, Day 8 (DSS-induced colitis; 16 mg/kg IP daily, DSS 5%): 26.0 ± 0.5 g
- % weight change ± SEM, Day 9 (DSS-induced colitis; 16 mg/kg IP daily, DSS 5%): 1.5 ± 1.5%
- Mean weight ± SEM, Day 9 (DSS-induced colitis; 16 mg/kg IP daily, DSS 5%): 25.6 ± 0.5 g
- % weight change ± SEM, Day 10 (DSS-induced colitis; 16 mg/kg IP daily, DSS 5%): 5.4 ± 1.6%
- Mean weight ± SEM, Day 10 (DSS-induced colitis; 16 mg/kg IP daily, DSS 5%): 24.6 ± 0.6 g
- Mean colon length CM ± SEM (DSS-induced colitis; 32 mg/kg IP daily, DSS 5%): 8.1 ± 0.19 CM
- Mean DAI ± SEM (DSS-induced colitis; 32 mg/kg IP daily): 3.07 ± 0.25
- Mean weight ± SEM, Day 0 (DSS-induced colitis; 32 mg/kg IP daily, DSS 5%): 25.9 ± 0.4 g
- % weight change ± SEM, Day 8 (DSS-induced colitis; 32 mg/kg IP daily, DSS 5%): 3.0 ± 0.6%
- Mean weight ± SEM, Day 8 (DSS-induced colitis; 32 mg/kg IP daily, DSS 5%): 25.1 ± 0.6 g
- % weight change ± SEM, Day 9 (DSS-induced colitis; 32 mg/kg IP daily, DSS 5%): 4.9 ± 2.4%
- Mean weight ± SEM, Day 9 (DSS-induced colitis; 32 mg/kg IP daily, DSS 5%): 24.6 ± 0.6 g
- % weight change ± SEM, Day 10 (DSS-induced colitis; 32 mg/kg IP daily, DSS 5%): 10.4 ± 3.2%
- Mean weight ± SEM, Day 10 (DSS-induced colitis; 32 mg/kg IP daily, DSS 5%): 23.2 ± 0.9 g
- Mean colon length CM ± SEM (DSS-induced colitis; 64 mg/kg IP daily, DSS 5%): 8.2 ± 0.20 CM
- Mean DAI ± SEM (DSS-induced colitis; 64 mg/kg IP daily): 2.78 ± 0.27
- Mean weight ± SEM, Day 0 (DSS-induced colitis; 64 mg/kg IP daily, DSS 5%): 25.9 ± 0.4 g
- % weight change ± SEM, Day 8 (DSS-induced colitis; 64 mg/kg IP daily, DSS 5%): 1.2 ± 1.5%
- Mean weight ± SEM, Day 8 (DSS-induced colitis; 64 mg/kg IP daily, DSS 5%): 25.8 ± 0.6 g
- % weight change ± SEM, Day 9 (DSS-induced colitis; 64 mg/kg IP daily, DSS 5%): 6.9 ± 1.8%
- Mean weight ± SEM, Day 9 (DSS-induced colitis; 64 mg/kg IP daily, DSS 5%): 24.1 ± 0.5 g
- % weight change ± SEM, Day 10 (DSS-induced colitis; 64 mg/kg IP daily, DSS 5%): 10.4 ± 1.7%
- Mean weight ± SEM, Day 10 (DSS-induced colitis; 64 mg/kg IP daily, DSS 5%): 23.2 ± 0.6 g
- Mean DAI* ± SEM (DSS-induced colitis; 16 mg/kg IP daily, DSS 5%): 2.85 ± 0.18
- Mean DAI* ± SEM (DSS-induced colitis; 32 mg/kg IP daily, DSS 5%): 3.60 ± 0.30
- Mean DAI* ± SEM (DSS-induced colitis; 64 mg/kg IP daily, DSS 5%): 2.94 ± 0.24
- inhibition at 16 mg/kg (DSS-induced colitis; Mus musculus, 16 mg/kg IP daily, DSS 5%, read-out: Colon shortening inhib. %): 11%
- inhibition at 32 mg/kg (DSS-induced colitis; Mus musculus, 32 mg/kg IP daily, DSS 5%, read-out: Colon shortening inhib. %): 4%
- inhibition at 64 mg/kg (DSS-induced colitis; Mus musculus, 64 mg/kg IP daily, DSS 5%, read-out: Colon shortening inhib. %): 7%
- % of normal length (DSS-induced colitis; 16 mg/kg IP daily, DSS 5%): 67.3%
- % of normal length (DSS-induced colitis; 32 mg/kg IP daily, DSS 5%): 64.9%
- % of normal length (DSS-induced colitis; 64 mg/kg IP daily, DSS 5%): 65.4%
- pKi (LTB4 receptor): 4.12
